In paper PMC5078989, “Targeted inhibition of the COP9 signalosome for treatment of cancer” (Nature Communications, 2016):

Tested on: panel of cancer cell lines
Experiment: Cell viability (CellTiter-Glo) dose-response across cancer cell line panel;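 further: after 72 h compound incubation with CellTiter-Glo ATP readout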
Assay type: cell-based, human
Conditions: Homo sapiens
Excerpt: Next, we explored the effect of CSN5 inhibition on the viability of cancer cells. To obtain a comprehensive picture, we generated dose–response curves with a CSN5 inhibitor across more than 500 cancer cell lines in a previously described standardized setting[47] (Supplementary Data 1).
A standardized CellTiter-Glo Assay (Promega #G7570) based on the quantification of ATP was applied according to the manufacturer's protocol to measure the amount of viable cells in culture. In brief, cells were seeded into 384-well plates at optimal density for each cell line. After 4 h, compounds were added at different concentrations in growth medium and incubated for another 72 h in a humidifying chamber at 37 °C and 5% CO2. […] EC50 values were calculated from the plot of percentage of inhibition versus inhibitor concentration using the nonlinear regression analysis software Origin 7.5SR6 (OriginLab Corp.).

## NS(=O)(=O)OC[C@@H]1C[C@@H](n2ccc3c(N[C@H]4CCc5ccccc54)ncnc32)C[C@@H]1O [MLN4924]
HEC-251, HEC-251
  EC50: 8160 nM
HEC-265
  EC50: 20000 nM
HEL
  EC50: 190 nM
HEL 92.1.7, HEL 92.1.7
  EC50: 94.8 nM
HEY A8, Hey-A8
  EC50: 114 nM
HL-60, HL-60
  EC50: 361 nM
HLC-1
  EC50: 981 nM
HLE
  EC50: 454 nM
HLF
  EC50: 739 nM
HMC-1-8
  EC50: 154 nM
HPAC
  EC50: 830 nM
HPBALL, HPB-ALL
  EC50: 333 nM
HRT-18, HRT-18
  EC50: 1860 nM
HSC-2, HSC-2
  EC50: 146 nM
HSC-3, HSC-3
  EC50: 292 nM
HSC-4, HSC-4
  EC50: 268 nM
HT-29, HT-29
  EC50: 2230 nM
HT-1080, HT-1080
  EC50: 215 nM
Hep3B
  EC50: 2560 nM
Hep 3B2.1-7
  EC50: 4280 nM
Hs 294T
  EC50: 1860 nM
Hs 695T
  EC50: 719 nM
Hs766T, Hs 766T
  EC50: 18800 nM
Hs 852.T
  EC50: 804 nM
Hs 936.T
  EC50: 202 nM
Hs 939.T
  EC50: 600 nM
Hs 944.T
  EC50: 898 nM
HuH-6, HuH-6
  EC50: 4960 nM
HuP-T4, HUP-T4
  EC50: 360 nM
Huh-7, HuH-7
  EC50: 723 nM
IGR-37, IGR-37
  EC50: 613 nM
IGR-39, IGR-39
  EC50: 545 nM
IGROV-1, IGROV1
  EC50: 399 nM
IPC-298, IPC-298
  EC50: 716 nM
IST-MES2
  EC50: 421 nM
Ishikawa
  EC50: 213 nM
J82, J82
  EC50: 1650 nM
JHH7, JHH-7
  EC50: 12200 nM
JHH-4, JHH-4
  EC50: 594 nM
JHOM-1
  EC50: 1300 nM
JHOS-2
  EC50: 274 nM
JHUEM-2
  EC50: 952 nM
JHUEM-3
  EC50: > 30000 nM
JIMT-1, JIMT-1
  EC50: 8670 nM
JL-1
  EC50: 2290 nM
JU77
  EC50: 304 nM
JVM-2, JVM-2
  EC50: 83.5 nM
K029AX
  EC50: 1740 nM
KARPAS-422, KARPAS-422
  EC50: 654 nM
KATO III
  EC50: 711 nM
KBM-7, KBM-7
  EC50: 106 nM
KCI-MOH1
  EC50: 2000 nM
KE-97, KE-97
  EC50: 210 nM
KLE
  EC50: 897 nM
KM12, KM12
  EC50: 1570 nM
KMM-1, KMM-1
  EC50: 462 nM
KMRC-1, KMRC-1
  EC50: 435 nM
KMRC-20
  EC50: 1520 nM
KMS-11, KMS-11
  EC50: 426 nM
KNS-42, KNS-42
  EC50: 282 nM
KNS-60
  EC50: 486 nM
KNS-62, KNS-62
  EC50: 398 nM
KP-1N
  EC50: 15600 nM
KP-1NL
  EC50: 13600 nM
KP-2
  EC50: 4050 nM
KP-4, KP4
  EC50: 828 nM
KS-1
  EC50: 336 nM
KU-19-19, KU-19-19
  EC50: 922 nM
KURAMOCHI
  EC50: 1250 nM
KYSE-30, KYSE-30
  EC50: 356 nM
KYSE-70, KYSE-70
  EC50: 1060 nM
KYSE-150, KYSE-150
  EC50: 725 nM
KYSE-180, KYSE-180
  EC50: 1290 nM
Kasumi-3, Kasumi3
  EC50: 292 nM
Kasumi-6
  EC50: 286 nM
L3.3
  EC50: 120 nM
L-363, L-363
  EC50: 139 nM
L-428, L-428
  EC50: 3080 nM
LC-1/sq-SF
  EC50: 926 nM
LC-1F
  EC50: 586 nM
LC-2-ad, LC2/ad
  EC50: 540 nM
LCLC-103H
  EC50: 573 nM
LIM1899
  EC50: 2310 nM
LIM2099
  EC50: 440 nM
LIM2405
  EC50: 305 nM
LIM2550
  EC50: 53.5 nM
LMSU
  EC50: 100 nM
LN-18, LN-18
  EC50: 178 nM
LO68
  EC50: 3750 nM
LOU-NH91, LOU-NH91
  EC50: 296 nM
LOX IMVI
  EC50: 262 nM
LP-1, LP-1
  EC50: 536 nM
LS180, LS 180
  EC50: 175 nM
LUDLU-1, LUDLU-1
  EC50: 2510 nM
Li-7, Li-7
  EC50: 827 nM
Lu-65, LU65
  EC50: 922 nM
Lu-99, LU99
  EC50: 98.5 nM
M-07e
  EC50: 1020 nM
MCAS
  EC50: 529 nM
MCC13
  EC50: 4250 nM
MCC14/2
  EC50: 36.1 nM
MCC26
  EC50: 652 nM
MDA-MB-134-VI
  EC50: 678 nM
MDA-MB-157, MDA-MB-157
  EC50: 8450 nM
MDA-MB-175-VII
  EC50: 448 nM
MDA-MB-231, MDA-MB-231
  EC50: 422 nM
MDA-MB-415, MDA-MB-415
  EC50: > 30000 nM
MDA-MB-435S
  EC50: 3550 nM
MDA-MB-436, MDA-MB-436
  EC50: 1430 nM
MDA-MB-453, MDA-MB-453
  EC50: 106 nM
MDA-MB-468, MDA-MB-468
  EC50: 396 nM
MDST8, MDST8
  EC50: 311 nM
ME-180, ME180
  EC50: 177 nM
MEC1, MEC-1
  EC50: 302 nM
MEL-HO
  EC50: 873 nM
MEL-JUSO
  EC50: 364 nM
MES-SA
  EC50: 932 nM
MFE-280, MFE-280
  EC50: 364 nM
MFE-296, MFE-296
  EC50: 109 nM
MFE-319
  EC50: 3660 nM
MFM-223, MFM223
  EC50: 105 nM
MG-63, MG-63
  EC50: 261 nM
MIA PaCa-2, MIA PaCa-2
  EC50: 518 nM
MINO
  EC50: 13.1 nM
MKN-1, MKN1
  EC50: 1020 nM
MKN-45, MKN-45
  EC50: 363 nM
ML-2, ML-2
  EC50: 57.1 nM
MM127
  EC50: 325 nM
MM138
  EC50: 251 nM
MM170
  EC50: 334 nM
MM253
  EC50: 35.5 nM
MM370
  EC50: 273 nM
MM383
  EC50: 281 nM
MM386
  EC50: 950 nM
MM415
  EC50: 675 nM
MM426
  EC50: 754 nM
MM466
  EC50: 2560 nM
MM473, MM473
  EC50: 589 nM
MM485
  EC50: 820 nM
MM537
  EC50: 84.6 nM
MM576
  EC50: 511 nM
MM603
  EC50: 415 nM
MOG-G-CCM
  EC50: 2350 nM
MOLM-13, MOLM-13
  EC50: 46.3 nM
MOLP-8, MOLP-8
  EC50: 132 nM
